In US20160214972A1, “COMPOUNDS AND METHODS FOR THE TARGETED DEGRADATION OF ANDROGEN RECEPTOR” (Arvinas, Inc., priority 2015, published 2016):
Entries after “also recorded” stand apart in the source; their conditions may differ.

Key:
[1] = tested on: LNCaP cells transduced with AR F876L construct; experiment: Anti-proliferation in LNCaP F876L (CellTiterGlo); assay type: cell-based; conditions: Charcoal Stripped Serum media, 7 days
Protocol: FIG. 3. Anti-proliferation in LNCaP F876L. […] LNCaP cells transduced with AR F876L construct were cultured in Charcoal Stripped Serum containing media.
LNCaP cells transduced with AR F876L construct were cultured in Charcoal Stripped Serum containing media. […] CellTiterGlo reagent (Promega) was employed to assess proliferation.

[2] = target: T1, AR (Homo sapiens, UniProt P10275+P40337, T878A); experiment: AR degradation of PROTAC is E3 ligase dependent (LNCaP cells); assay type: cell-based; conditions: 24 hours
T1 construct: endogenous in cells; host or cells: LNCaP cells
Text: FIG. 7A and FIG. 7B. AR degradation of PROTAC is E3 ligase dependent.

[3] = tested on: Androgen Receptor; experiment: Androgen Receptor ELISA assay (PathScan AR ELISA) in LNCaP and/or VCaP cells; assay type: cell-based; conditions: highest percentage of Androgen Receptor degradation observed
[4] = tested on: prostate; experiment: Prostate involution in C57B6 mouse model; assay type: in vivo; conditions: 12-week old male C57BL/6 mice; IP, QD, 1 and 3 mpk for 10 days
Text: FIG. 5. Prostate involution in C57B6 mouse model.

[5] = tested on: VCaP xenograft; experiment: Tumor growth inhibition in VCaP xenograft model; assay type: in vivo; conditions: castrated CB17 scid mice with VCaP tumors; enzalutamide PO, QD, 30 mpk; Example 163 IP, QD, 30, 10 and 3 mpk
Text: FIG. 6. Tumor growth inhibition in VCaP xenograft model. VCaP cells were implanted into CB17 scid mice subcutaneously. Once the tumors were palpable, the mice were castrated, leading to temporary tumor stasis.
VCaP cells were implanted into CB17 scid mice subcutaneously. Once the tumors were palpable, the mice were castrated, leading to temporary tumor stasis.

T1 sequence (P10275 whole entry T878A): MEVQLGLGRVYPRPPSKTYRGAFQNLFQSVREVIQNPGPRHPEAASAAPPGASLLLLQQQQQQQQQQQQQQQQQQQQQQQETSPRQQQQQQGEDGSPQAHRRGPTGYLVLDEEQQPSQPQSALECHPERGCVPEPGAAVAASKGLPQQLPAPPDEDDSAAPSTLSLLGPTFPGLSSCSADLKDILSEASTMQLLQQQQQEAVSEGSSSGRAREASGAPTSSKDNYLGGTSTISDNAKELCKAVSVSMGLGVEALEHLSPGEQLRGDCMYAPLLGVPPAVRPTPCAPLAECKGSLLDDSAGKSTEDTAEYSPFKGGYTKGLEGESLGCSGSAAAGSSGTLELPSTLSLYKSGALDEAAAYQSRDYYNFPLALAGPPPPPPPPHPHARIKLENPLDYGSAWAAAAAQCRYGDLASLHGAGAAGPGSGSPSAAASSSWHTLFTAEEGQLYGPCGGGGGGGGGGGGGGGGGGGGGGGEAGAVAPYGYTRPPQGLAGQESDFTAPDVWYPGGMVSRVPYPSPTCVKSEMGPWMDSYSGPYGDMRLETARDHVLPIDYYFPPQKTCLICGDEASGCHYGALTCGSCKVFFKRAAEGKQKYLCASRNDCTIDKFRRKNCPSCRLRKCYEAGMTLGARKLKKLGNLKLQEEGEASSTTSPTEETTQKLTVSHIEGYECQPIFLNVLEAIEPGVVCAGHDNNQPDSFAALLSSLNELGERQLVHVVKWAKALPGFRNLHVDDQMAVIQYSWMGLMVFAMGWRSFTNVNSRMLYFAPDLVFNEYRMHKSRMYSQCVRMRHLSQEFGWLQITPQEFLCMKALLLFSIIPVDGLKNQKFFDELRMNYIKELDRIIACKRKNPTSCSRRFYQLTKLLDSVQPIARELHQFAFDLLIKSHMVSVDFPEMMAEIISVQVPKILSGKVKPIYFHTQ
T1 sequence (P40337 whole entry): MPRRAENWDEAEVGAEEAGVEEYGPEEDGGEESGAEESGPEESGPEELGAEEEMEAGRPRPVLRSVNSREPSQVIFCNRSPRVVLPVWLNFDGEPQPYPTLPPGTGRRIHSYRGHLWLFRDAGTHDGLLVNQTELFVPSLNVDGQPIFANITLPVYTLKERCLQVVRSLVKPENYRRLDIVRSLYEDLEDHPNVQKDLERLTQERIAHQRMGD
T1 sequence (Q15369 whole entry partner): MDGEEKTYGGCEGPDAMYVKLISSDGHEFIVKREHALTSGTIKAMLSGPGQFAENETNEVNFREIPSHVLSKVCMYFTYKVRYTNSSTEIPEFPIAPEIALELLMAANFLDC
T1 sequence (Q15370 whole entry partner): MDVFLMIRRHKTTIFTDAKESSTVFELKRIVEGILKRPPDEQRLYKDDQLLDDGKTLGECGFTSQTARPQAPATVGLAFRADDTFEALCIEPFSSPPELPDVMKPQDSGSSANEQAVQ
T1 sequence (Q13617 whole entry partner): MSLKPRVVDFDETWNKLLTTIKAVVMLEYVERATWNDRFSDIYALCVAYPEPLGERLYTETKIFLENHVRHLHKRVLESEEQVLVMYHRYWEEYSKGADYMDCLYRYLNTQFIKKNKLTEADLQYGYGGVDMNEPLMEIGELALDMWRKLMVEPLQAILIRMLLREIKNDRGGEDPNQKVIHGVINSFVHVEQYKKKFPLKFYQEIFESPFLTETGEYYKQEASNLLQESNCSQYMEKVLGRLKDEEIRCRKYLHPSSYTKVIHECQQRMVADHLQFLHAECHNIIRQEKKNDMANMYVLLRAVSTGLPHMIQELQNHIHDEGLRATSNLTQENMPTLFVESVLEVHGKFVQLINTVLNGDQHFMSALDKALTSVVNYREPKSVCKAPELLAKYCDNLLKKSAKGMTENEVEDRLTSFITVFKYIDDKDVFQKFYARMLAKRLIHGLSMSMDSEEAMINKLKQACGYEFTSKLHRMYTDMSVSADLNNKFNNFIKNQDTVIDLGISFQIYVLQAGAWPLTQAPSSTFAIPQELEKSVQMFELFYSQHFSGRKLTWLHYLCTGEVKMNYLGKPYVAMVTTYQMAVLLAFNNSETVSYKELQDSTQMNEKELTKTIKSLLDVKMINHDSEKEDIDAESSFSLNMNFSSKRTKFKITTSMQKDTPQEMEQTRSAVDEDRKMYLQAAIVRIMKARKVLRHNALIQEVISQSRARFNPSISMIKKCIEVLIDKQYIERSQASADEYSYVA
T1 sequence (P62877 whole entry partner): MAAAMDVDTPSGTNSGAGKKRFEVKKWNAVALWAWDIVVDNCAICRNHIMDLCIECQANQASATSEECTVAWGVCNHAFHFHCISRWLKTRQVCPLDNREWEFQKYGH

## Cc1ncsc1-c1ccc(CNC(=O)[C@@H]2C[C@@H](O)CN2C(=O)[C@@H](NC(=O)COCCCOCCCCCOc2ccc(N3C(=S)N(c4ccc(C#N)c(C(F)(F)F)c4)C(=O)C3(C)C)cc2)C(C)(C)C)cc1 [Example 1, (2S,4R)-1-((S)-2-(2-(3-(5-(4-(3-(4-cyano-3-(trifluoromethyl)phenyl)-5,5-dimethyl-4-oxo-2-thioxoimidazolidin-1-yl)phenoxy)pentyloxy)propoxy)acetamido)-3,3-dimethylbutanoyl)-4-hydroxy-N-(4-(4-methylthiazol-5-yl)benzyl)pyrrolidine-2-carboxamide]
[1]
  proliferation of LNCaP F876L cells (agonist activity): did not exhibit agonist activity; also recorded: Anti-proliferation in LNCaP F876L cells observed
[2]
  AR degradation in LNCaP cells: significant degradation of AR
[2]; 10 uM compound B
  AR degradation in LNCaP cells in the presence of VHL E3 ligase ligand compound B: greatly diminishes the AR degradation activity

## Cc1ncsc1-c1ccc(CNC(=O)[C@@H]2C[C@@H](O)CN2C(=O)[C@@H](NC(=O)COCCOCCOc2ccc(-c3ccc(N4C(=S)N(c5ccc(C#N)c(C(F)(F)F)c5)C(=O)C4(C)C)cc3)cc2)C(C)(C)C)cc1 [Example 67, (2S,4R)-1-((S)-2-(2-(2-(2-(4′-(3-(4-cyano-3-(trifluoromethyl)phenyl)-5,5-dimethyl-4-oxo-2-thioxoimidazolidin-1-yl)biphenyl-4-yloxy)ethoxy)ethoxy)acetamido)-3,3-dimethylbutanoyl)-4-hydroxy-N-(4-(4-methylthiazol-5-yl)benzyl)pyrrolidine-2-carboxamide]
[3]
  LNCaP Dmax (%): 72.1%

## Cc1ncsc1-c1ccc(CNC(=O)[C@@H]2C[C@@H](O)CN2C(=O)[C@@H](NC(=O)COCCCCOc2ccc(C(=O)N[C@H]3C(C)(C)[C@H](Oc4ccc(C#N)c(Cl)c4)C3(C)C)cc2)C(C)(C)C)cc1 [Example 163, (2S,4R)-1-[(2S)-3,3-dimethyl-2-{2-[4-(4-{[trans-3-(3-chloro-4-cyanophenoxy)-2,2,4,4-tetramethylcyclobutyl]carbamoyl}phenoxy)butoxy]acetamido}butanoyl]-4-hydroxy-N-{[4-(4-methyl-1,3-thiazol-5-yl)phenyl]methyl}pyrrolidine-2-carboxamide]
[4]
  prostate weights (prostate involution): significant reduction in prostate weights; also recorded: significant prostate involution in mice at very low doses
[5]
  tumor growth inhibition: Tumor growth inhibition was observed in all treatment arms

## CNC(=O)c1ccc(N2C(=S)N(c3ccc(C#N)c(C(F)(F)F)c3)C(=O)C2(C)C)cc1F [enzalutamide, reference compound]
[5]
  tumor growth inhibition: Tumor growth inhibition was observed in all treatment arms
